Measured values as given in patent US20220177511A1, “SERIES OF HALOGENATED TETRACYCLIC TRITERPENE DERIVATIVES AND THEIR PREPARATION AND APPLICATION” (SHANGHAI KING-X BIOTECH CO., LTD, priority 2019, published 2022).
In brackets after ≈: the same amount, converted by molar mass. Read-outs that look alike come from different tables or passages of the source.

Test: Solubility test in water and FaSSIF
Format: physicochemical
Details: 37° C., up to 24 hours

Row | SMILES | Solubility (FaSSIF (pH 6.5)) [µg/mL] | Solubility (Water) [µg/mL] | Solubility (thermodynamic from solid, FaSSIF (pH 6.5), read-out: Solubility) [µg/mL] | Solubility (thermodynamic from solid, Water, read-out: Solubility) [µg/mL]
1 | CC(C)C[C@H](N)C(=O)O[C@H]1C[C@@H]2[C@]3(CC[C@]4(C)[C@@H]([C@]5(C)CC[C@@H](C(C)(C)O)O5)[C@@H](O)C[C@@]24C)C[C@@]32CCC(F)(F)C(C)(C)[C@H]12.Cl [Compound 2-18, (S)-1-(((2aR,3R,4S,5aS,5bS,7S,7aR,11aR,12aS)-9,9-difluoro-4-hydroxy-3-((2S,5S)-5-(2-hydroxypropan-2-yl)-2-methyltetrahydrofuran-2-yl)-2a,5a,8,8-tetramethyltetradecahydro-1H,12H-cyclopenta[a]cyclopropa[e]phenanthren-7-yl)oxy)-4-methyl-1-oxopentan-2-aminium Chloride] | 1850 | 600 | – | –
2 | Br.CC(C)(O)C1CCC(C)(C2C(O)CC3(C)C4CC(OC(=O)COCCOCCOCCOCCOCCN)C5C(C)(C)C(F)(F)CCC56CC46CCC23C)O1 [Compound 2-10, 17-(((2aR,3R,4S,5aS,5bS,7S,7aR,11aR,12aS)-9,9-difluoro-4-hydroxy-3-((2S,5S)-5-(2-hydroxypropan-2-yl)-2-methyltetrahydrofuran-2-yl)-2a,5a,8,8-tetramethyltetradecahydro-1H,12H-cyclopenta[a]cyclopropa[e]phenanthren-7-yl)oxy)-17-oxo-3,6,9,12,15-pentaoxaheptadecan-1-aminium Bromide] | 4390 | 2280 | – | –
3 | CC(C)(O)[C@@H]1CC[C@@](C)([C@H]2[C@@H](O)C[C@@]3(C)[C@@H]4C[C@H](OC(=O)COCCO)[C@H]5C(C)(C)C(F)(F)CC[C@@]56C[C@@]46CC[C@]23C)O1 [Compound 2-11, (2aR,3R,4S,5aS,5bS,7S,7aR,11aR,12aS)-9,9-difluoro-4-hydroxy-3-((2S,5S)-5-(2-hydroxypropan-2-yl)-2-methyltetrahydrofuran-2-yl)-2a,5a,8,8-tetramethyltetradecahydro-1H,12H-cyclopenta[a]cyclopropa[e]phenanthren-7-yl-2-(2-hydroxyethoxy)acetate] | – | – | 1050 (≈ 1710 µM) | 550 (≈ 898 µM)
4 | CC(C)(O)[C@@H]1CC[C@@](C)([C@H]2[C@@H](O)C[C@@]3(C)[C@@H]4C[C@H](OC(=O)COCCOCCOCCN)[C@H]5C(C)(C)C(F)(F)CC[C@@]56C[C@@]46CC[C@]23C)O1.O=C(O)C(F)(F)F [Compound 2-8, 2-(2-(2-(2-(((2aR,3R,4S,5aS,5bS,7S,7aR,11aR,12aS)-9,9-difluoro-4-hydroxy-3-((2S,5S)-5-(2-hydroxypropan-2-yl)-2-methyltetrahydrofuran-2-yl)-2a,5a,8,8-tetramethyltetradecahydro-1H,12H-cyclopenta[a]cyclopropa[e]phenanthren-7-yl)oxy)-2-oxoethoxy)ethoxy)ethoxy)ethan-1-aminium Trifluoroacetate] | 4020 | 2050 | – | –
5 | CC(C)(O)C1CCC(C)(C2C(O)CC3(C)C4CC(OC(=O)C5CCNCC5)C5C(C)(C)C(F)(F)CCC56CC46CCC23C)O1.Cl [Compound 2-2, 4-((((2aR,3R,4S,5aS,5bS,7S,7aR,11aR,12aS)-9,9-difluoro-4-hydroxy-3-((2S,5S)-5-(2-hydroxypropan-2-yl)-2-methyltetrahydrofuran-2-yl)-2a,5a,8,8-tetramethyltetradecahydro-1H,12H-cyclopenta[a]cyclopropa[e]phenanthren-7-yl)oxy)carbonyl)piperidin-1-ium Chloride] | 1660 | 880 | – | –
6 | CC(C)(O)C1CCC(C)(C2C(O)CC3(C)C4CC(OP(=O)(O)O)C5C(C)(C)C(F)(F)CCC56CC46CCC23C)O1.N [Compound 3-2, Ammonium (2aR,3R,4S,5aS,5bS,7S,7aR,11aR,12aS)-9,9-difluoro-4-hydroxy-3-((2S,5S)-5-(2-hydroxypropan-2-yl)-2-methyltetrahydrofuran-2-yl)-2a,5a,8,8-tetramethyltetradecahydro-1H,12H-cyclopenta[a]cyclopropa[e]phenanthren-7-yl phosphate] | 22300 | 12600 | – | –
